{"source": "patent US12076329B2", "about": "“Compositions and methods for enhancing visual function” (The Regents of the University of California, priority 2020, dated 2024)", "key": {"[1]": {"target": "T1, SNAP-mGluR2 (Rattus norvegicus, UniProt P31421)", "T1 construct": "expressed in transfected cells; host or cells: HEK293 / HEK 293T, with co-expressed GIRK channel", "T1 sequence (P31421 with tags, fused parts or gaps)": "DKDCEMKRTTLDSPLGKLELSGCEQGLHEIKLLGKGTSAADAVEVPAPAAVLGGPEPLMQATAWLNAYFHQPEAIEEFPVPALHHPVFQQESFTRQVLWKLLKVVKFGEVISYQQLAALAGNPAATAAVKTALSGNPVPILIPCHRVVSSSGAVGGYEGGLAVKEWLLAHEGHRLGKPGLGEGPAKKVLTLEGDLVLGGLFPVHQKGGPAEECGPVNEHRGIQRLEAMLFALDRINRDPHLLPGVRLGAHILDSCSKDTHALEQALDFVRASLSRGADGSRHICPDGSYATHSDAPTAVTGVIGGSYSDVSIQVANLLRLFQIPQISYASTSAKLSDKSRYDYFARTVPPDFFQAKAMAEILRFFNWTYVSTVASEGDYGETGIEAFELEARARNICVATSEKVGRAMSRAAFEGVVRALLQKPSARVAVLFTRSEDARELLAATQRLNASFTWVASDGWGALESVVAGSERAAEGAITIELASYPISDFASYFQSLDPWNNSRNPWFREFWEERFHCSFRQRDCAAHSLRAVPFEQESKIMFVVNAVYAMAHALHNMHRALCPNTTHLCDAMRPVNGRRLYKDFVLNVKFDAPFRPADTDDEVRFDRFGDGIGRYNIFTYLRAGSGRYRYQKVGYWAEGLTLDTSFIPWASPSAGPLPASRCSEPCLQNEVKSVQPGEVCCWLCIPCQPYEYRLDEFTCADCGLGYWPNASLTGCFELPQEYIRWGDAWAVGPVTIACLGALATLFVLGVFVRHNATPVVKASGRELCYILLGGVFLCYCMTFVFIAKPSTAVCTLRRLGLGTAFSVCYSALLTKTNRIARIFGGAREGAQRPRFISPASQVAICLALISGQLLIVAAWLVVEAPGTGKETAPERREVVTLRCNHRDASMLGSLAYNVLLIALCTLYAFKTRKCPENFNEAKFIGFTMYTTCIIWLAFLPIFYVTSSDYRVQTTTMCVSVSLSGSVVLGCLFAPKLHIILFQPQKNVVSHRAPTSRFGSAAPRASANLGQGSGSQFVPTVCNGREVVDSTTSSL", "experiment": "Photoactivation of SNAP-mGluR2 read out as GIRK current, whole cell patch clamp in HEK293 cells", "assay_type": "cell-based", "description": "Whole cell patch clamp recordings from HEK 293T cells were performed 24-48 hours after transfection as previously described (Farrants et al., 2018). Briefly, voltage clamp recordings at −60 mV were performed in a high potassium (120 mM) solution to enable large inward currents upon receptor activation.\nUnless otherwise noted, cells were incubated with 1-10 μM of PORTL for 45-60 min at 37° C. in the appropriate extracellular recording solution. Labeling efficiency was determined as previously described (Levitz et al., 2017). Illumination was applied to the entire field of view using a CoolLED pE-4000 through a 40× objective. Light intensity in the sample plane was 1-2 mW/mm^2. pClamp software was used for both data acquisition and control of illumination. All drugs were purchased from Tocris and applied using a gravity-driven perfusion system.\nFIG. 3A-3C. Monovalent BGAG12,460 elicits rat SNAP-mGluR2 and human SNAP-mGluR6 GIRK photo-current in HEK293 cells. FIG. 3A. Group II and III mGluRs, like mGluR2 and 6, respectively, couple to GIRK channels in neurons and this system reconstitutes in non-neuronal cell lines, so that SNAP-mGluR2 or 6 coupled to a BGAG photoswitch will be activated by light and induce hyperpolarizing GIRK current. FIG. 3B. Blue (460 nm) light photo-activates BGAG12,460:SNAP-mGluR2 and elicits an inward K+ current from co-expressed GIRK channel in a HEK293 cell voltage clamped at −60 mV with [K+]in=[K+]out=150 mM. FIG. 3C.\nFIG. 4A-4D. Multibranched BGAG12,460 increases potency and sensitivity of SNAP-mGluR2 activation of GIRK channels in HEK293 cells. FIG. 4A. ^4×BGAG12,460 consists of a single BG end for 1:1 attachment to SNAP on each subunit of the mGluR and 4 branches of a 12-PEG linker, with each branch bearing a photoswitchable azobenzene-glutamate (AG). FIG. 4B. […] Dependence of SNAP-mGluR2 photo-activation efficiency, read out as GIRK current, with single, 2-branch and 4-branch BGAG12,460. […]"}, "[2]": {"test_system": "rd1 mice expressing SNAP-mGluR2 in RGCs", "experiment": "2-chamber light/dark light aversion test, SNAP-mGluR2 in RGCs", "assay_type": "in vivo, mouse", "description": "Mouse experiments were conducted under the express approval of the University of California Animal Care and Use Committee, wt mice (C57BL/6J) and rd1 mice (C3H) were purchased from the Jackson Laboratory and housed on a 12-h light/dark cycle with food and water ad libitum. cDNA encoding SNAP-mGluR2 was inserted in an established viral cassette under control of either the human synapsin promoter (hsyn-1) for expression in RGCs or a 4-copy concatemer of the mouse grm6 minimal promoter (4×grm6) for expression in ON-BCs and packaged in the AAV 2/2-4YF capsid. The vector, containing 10^10-10^12 viral genomes was delivered in a 2 µl volume to the vitreous of the rd1 mouse eye via microinjection. rAAV injections were at p30-p60 and in vivo and in vitro experiments at p90-p160. AAVs were produced as previously described.\nPhotoswitch compounds were synthesized using the protocol described in Broichhagen, J., et al. (2015) ACS Cent Sci 1, 383-393. Stock solution of […] BGAG12,460 (L-diastereomer) in 100% pharmaceutical grade DMSO (Cryoserv; Bioniche Pharma) was diluted 1:100 in sterile PBS for a final working solution of 1 mM in 1% DMSO. Working solutions were either prepared before administration, prepared in stock stored in the freezer and used as required, or salvaged from the recording bath and stored (either RT or freezer) for reuse. Application of BGAG12,460 or BGAG12 on retinal explants were performed in a volume of 200 μL at a concentration of 50 μM to 50 nM BGAG12,460 (in PBS with >1% DMSO). For in vivo behavioral experiments, a 2-μL volume of 1 mM or 3.5 μL (final vitreal concentration of […]) of BGAG12,460 solution (in PBS with 1% DMSO) was injected into eyes that treated with AAV>6 wks earlier). For in vivo concentration dependence experiments, the mouse eye was assumed to contain a volume of 5.3 μL and a 2-μL volume of 3.5 μM, 1.825 μM and 0.1825 μM BGAG12,460 solution (in PBS with 1% DMSO) was injected into eyes to obtain a final concentration of 1 μM, 500 nM and 50 nM^62. For hydrated slow release 5% pharmaceutical grade beta cyclodextrin (cyclodex) in PBS was mixed with BGAG12,460 for a final concentration of 3 μM and 2 μL were injected bilaterally into the mouse eye. MAG0460 was synthesized and administered in 2 μL at a concentration of 100 μM.\nThe 2-chamber light-dark passive avoidance test was performed. White light (wavelength range) at ˜100 μW cm^2 or either blue light (460/45 nm) or green light (535/50 nm) at 0.5-25 μW cm^2 was mounted above the chamber with homogeneously distributed light.\nAnimal movements were tracked using IR sensors on the shuttle box. Time spent in the light and dark chambers was measured and analyzed using Graphic State and Graphic State RT (Coulbourn Instruments).\nNatural light aversion behavior was tested. […]"}}, "note": "“Also recorded” adds a separate entry of the source."}
{"smiles": "Nc1nc(OCc2ccc(CNC(=O)CCCC(=O)N[C@H](CCC(=O)N[C@H](CCC(=O)NCCOCCOCCOCCOCCOCCOCCOCCOCCOCCOCCOCCOCCC(=O)NCCNc3ccc(/N=N/c4ccc(NC(=O)CCC[C@@H](C[C@H](N)C(=O)O)C(=O)O)cc4)cc3)C(=O)NCCOCCOCCOCCOCCOCCOCCOCCOCCOCCOCCOCCOCCC(=O)NCCNc3ccc(/N=N/c4ccc(NC(=O)CCC[C@@H](C[C@H](N)C(=O)O)C(=O)O)cc4)cc3)C(=O)N[C@H](CCC(=O)NCCOCCOCCOCCOCCOCCOCCOCCOCCOCCOCCOCCOCCC(=O)NCCNc3ccc(/N=N/c4ccc(NC(=O)CCC[C@@H](C[C@H](N)C(=O)O)C(=O)O)cc4)cc3)C(=O)NCCOCCOCCOCCOCCOCCOCCOCCOCCOCCOCCOCCOCCC(=O)NCCNc3ccc(/N=N/c4ccc(NC(=O)CCC[C@@H](C[C@H](N)C(=O)O)C(=O)O)cc4)cc3)cc2)c2nc[nH]c2n1", "note": "[^4×BGAG12,460]", "values": [{"measurement": "visible light photoactivation of SNAP-mGluR2", "setting": "[1]; 460 nm light, GIRK current, HEK293 cells", "value": "near-complete photoactivation of mGluR2; also recorded: close to the maximum activation that is achieved with saturating glutamate"}, {"measurement": "increase in sensitivity (shift of mid-point of the intensity-response curve)", "setting": "[1]; cultured HEK293 cells, versus BGAG12,460", "value": "~5", "unit": "fold"}, {"measurement": "dark preference three weeks after injection", "setting": "[2]; in PBS intravitreal", "value": "disappeared"}, {"measurement": "light aversion (time in dark versus illuminated chamber)", "setting": "[2]; in PBS intravitreal, first week after injection, white screen 88 uW/cm^2", "value": "spent more time in the dark chamber than in the illuminated chamber"}, {"measurement": "light aversion at 0.2 μW/cm^2", "setting": "[2]; intensity-response relation", "value": "operating at chance"}, {"measurement": "light intensity giving maximal light-aversion behavior", "setting": "[2]; intensity-response relation", "value": 25, "unit": "μW/cm^2"}]}
